Assay results as given in patent publication US11840495B2, “Compositions and methods related to di-substituted bicyclo[2.2.1] heptanamine-containing compounds” (The Broad Institute, Inc., priority 2020, dated 2023).
Read-outs that look alike come from different tables or passages of the source.

What was measured:
MUC1-fs = assay: Immunofluorescence imaging of MUC1-fs in P cells (Example 2); type: cell-based; conditions: for EC50: 48 hr incubation, MUC1-fs; for Emax / ECMax (%): 48 hr; for Emax: DMSO = 0, JQ1 = −100% activity, in %; for ECMax (%): DMSO = 0, JQ1 (250 nM) = −100% activity
Experimental: (§1) P cells were seeded 24 hr prior to compound treatment at a density of 12,000 cells/well in 384 well Cell Carrier Ultra plates (6057308, Perkin Elmer), pre-coated with 0.25 mg/mL Synthemax II SC Substrate (3535, Corning). Compounds were used at 5 doses (35, 3.5, 0.35, 0.035 and 0.0035 μM) for the primary screen and 10 doses (16, 5.6, 1.8, 0.6, 0.21, 0.07, 0.02, 0.008, 0.002 and 0.0008 μM) for the following screens. The compounds, in two replicates, were transferred from compound source plates to the cell plates using the HighRes Pin Tool. DMSO was used as a negative control and JQ1 (250 nM) (a bromodomain inhibitor) was chosen as a positive control, based on earlier studies showing its potent effect on reducing total MUC1 mRNA levels (data not shown). After 48 hr incubation, cells were fixed for 20 min in 4% PFA (Electron Microscopy Sciences) in PBS, washed twice, then permeabilized (10 min) with 0.5% Triton-X100 (X100-100ML, Sigma-Aldrich) in PBS and washed once more. Cells were blocked for 10 min at RT with Blocking solution (100 mM Tris HCL pH8; 150 mM NaCL; 5 g/L Blocking Reagent [11096176001, Roche]), then incubated 90 min at RT with one of the following primary antibodies in Roche Blocking solution: 1:500, monoclonal Fab-A-VSH anti-MUC1-fs, AbD22655.2, Bio-Rad; 1:2000, monoclonal mouse anti-MUC1 (214D4), 05-652-KC, Millipore; 1:1000, monoclonal, Rabbit anti-GM130 (D6B1) XP, 12480, Cell signaling technology. The primary antibody cocktail was incubated at RT for 1.5 hr, followed by four PBS wash cycles. The secondary antibody cocktail contained four components that were all prepared at a 1:1000 dilution in the Roche blocking solution and consisted of Alexa Fluor® 488-conjugated AffiniPure F(ab′)2 Fragment Goat anti-Human IgG, 109-546-097, Jackson Immunoresearch; Alexa Fluor® 647-conjugated Goat anti-Rabbit IgG, A-21246, Thermo Fisher Scientific®; Alexa Fluor® 546 Goat anti-mouse IgG, A-21123, Thermo Fisher Scientific® and Hoechst 33342 stain (62249, Thermo Fisher Scientific®). The secondary antibody cocktail was incubated at RT for 45 min, followed by four PBS wash cycles. Finally, plates were sealed with a Plate Loc plate and stored in Liconic incubator at 10° C. until imaging. Following image analysis, three parameters were selected, i) MUC1-fs and ii) MUC1-wt total cytoplasm intensity (averaged per cell) and iii) cell number as was detected by Hoechst 33342 stained nuclei. The levels of MUC1-fs and MUC1-wt found following DMSO and JQ1 were defined as 0 and −100% activity, respectively. The values obtained for all compounds were normalized accordingly. Cell number was normalized to DMSO control.

MUC1-wt = assay: Immunofluorescence imaging of MUC1-wt in P cells (Example 2); type: cell-based; conditions: for EC50: 48 hr incubation, MUC1-wt; for WT EMax / WT ECMax (%): 48 hr; for WT EMax: DMSO = 0, JQ1 = −100% activity, in %; for WT ECMax (%): DMSO = 0, JQ1 (250 nM) = −100% activity
Experimental: as §1

| EC50 (MUC1-fs; read-out: EC50(Spot)) [µM] | EC50 (MUC1-wt; read-out: WT EC50 (Cytoplasm)) [µM] | EC50 (MUC1-fs; read-out: EC50) [µM] | EC50 (MUC1-wt; read-out: WT EC50) [µM] | Compound | Emax (MUC1-fs) | WT EMax (MUC1-wt) | ECMax (%) (MUC1-fs) | WT ECMax (%) (MUC1-wt) | other results |
| --- | --- | --- | --- | --- | --- | --- | --- | --- | --- |
| 0.05 | 2.11 | – | – | CC[C@]1(C)[C@H]2CC[C@H](C2)[C@H]1N.Cl (racemic) [Compound 202-rac] | – | – | −76.19 | 125.82 | – |
| – | – | > 16 | > 16 | COCC1CCCC2(C1)C1CCC(C1)C2N.Cl (racemic) [Compound 225-1, rac-3′-(methoxymethyl)spiro[bicyclo[2.2.1]heptane-2,1′-cyclohexan]-3-amine hydrogen chloride] | −13.3 | −15.8 | – | – | – |
| 15.5 | > 32 | – | – | C[C@@H]1CC[C@@]2(C1)[C@H]1CC[C@H](C1)[C@H]2N.Cl [Compound 210-P1-B] | – | – | −26.85 | −4.05 | – |
| > 32 | > 32 | – | – | CCCCC1(C)C2CCC(C2)C1N (centres unmarked) [Compound 206-P2] | – | – | −10.5 | −3.86 | – |
| – | – | 3.6 | > 16 | Cl.N[C@H]1[C@@H]2CC[C@@H](C2)C12CCCC(C(=O)N1CCCCC1)C2 (stereo partly drawn) [Compound 227-1, ((1S,3S,4R)-3-aminospiro[bicyclo[2.2.1]heptane-2,1′-cyclohexan]-3′-yl)(piperidin-1-yl)methanone hydrochloride] | −79.5 | −7.0 | – | – | – |
| – | – | 0.962 | > 16 | NC1C2CCC(C2)C12CC1CC1C2 (racemic) [Compound 236, rac-spiro[bicyclo[2.2.1]heptane-2,3′-bicyclo[3.1.0]hexan]-3-amine] | −89.6 | −20.3 | – | – | – |
| – | – | 13.3 | > 16 | CC12CC3(CC1(C)C2)C1CCC(C1)C3N.Cl (racemic) [Compound 237, rac-1′,5′-dimethylspiro[bicyclo[2.2.1]heptane-2,3′-bicyclo[3.1.0]hexan]-3-amine hydrochloride] | −45.1 | −10.0 | – | – | – |
| – | – | 1.77 | > 16 | Cl.NC1C2CCC(C2)C12CCOCC2 (racemic) [Compound 235, rac-tetrahydrospiro[bicyclo[2.2.1]heptane-2,4′-pyran]-3-amine hydrochloride] | −88.6 | −6.6 | – | – | – |
| 0.12 | > 32 | – | – | CC1CC[C@]2(C1)[C@H]1CC[C@H](C1)[C@H]2N.Cl (mixture of isomers) [Compound 210] | – | – | −62.47 | −10.67 | – |
| – | – | 2.2 | > 16 | NC1C2CCC(C2)C12CCC(O)C2 (racemic) [Compound 249A, rac-3-aminospiro[bicyclo[2.2.1]heptane-2,1′-cyclopentan]-3′-ol] | −98.1 | −7.2 | – | – | – |
| – | – | 1.9 | > 16 | CC(C)[C@@]1(C)[C@H]2CC[C@H](C2)[C@H]1N.Cl [Compound 246-A, (1R,2R,3S,4S)-3-isopropyl-3-methylbicyclo[2.2.1]heptan-2-amine hydrochloride] | −67.8 | 20.7 | – | – | – |
| – | – | 0.029 | 5.6 | NC1C2CCC(C2)C12CC1CCC2C1 (racemic) [Compound 238-B, rac-2,2′-spirobi[bicyclo[2.2.1]heptan]-3-amine] | −106.4 | 40.7 | – | – | – |
| – | – | 6.38 | > 16 | NC1C2CCC(C2)C12CCC(O)C2 (racemic) [Compound 249C, rac-3-aminospiro[bicyclo[2.2.1]heptane-2,1′-cyclopentan]-3′-ol] | −74.4 | −11.9 | – | – | – |
| – | – | 15.5 | > 16 | COC1CC2(CC1OC)C1CCC(C1)C2N.Cl (racemic) [Compound 229, rac-3′,4′-dimethoxyspiro[bicyclo[2.2.1]heptane-2,1′-cyclopentan]-3-amine hydrochloride] | −48.1 | 10.3 | – | – | – |
| – | – | 0.11 | 9.8 | Cl.NC1C2CCC(C2)C12CC=CC2 (racemic) [Compound 248, rac-spiro[bicyclo[2.2.1]heptane-2,1′-cyclopentan]-3′-en-3-amine hydrochloride] | −83.1 | 36.5 | – | – | – |

Second part, the compound before the results:

| Compound | EC50 (MUC1-fs; read-out: EC50(Spot)) [µM] | EC50 (MUC1-wt; read-out: WT EC50 (Cytoplasm)) [µM] | EC50 (MUC1-fs; read-out: EC50) [µM] | EC50 (MUC1-wt; read-out: WT EC50) [µM] | Emax (MUC1-fs) | WT EMax (MUC1-wt) | ECMax (%) (MUC1-fs) | WT ECMax (%) (MUC1-wt) | other results |
| --- | --- | --- | --- | --- | --- | --- | --- | --- | --- |
| Cl.NC1C2CCC(C2)C12CC1CCC2C1 (racemic) [Compound 238, rac-2,2′-spirobi[bicyclo[2.2.1]heptan]-3-amine hydrochloride] | – | – | – | – | −96.4 | 68.9 | – | – | EC50 (MUC1-fs; hydrochloride, read-out: EC50): 0.032 µM; EC50 (MUC1-wt; hydrochloride, read-out: WT EC50): 0.74 µM |
| C[C@@H]1CC[C@]2(C1)[C@H]1CC[C@H](C1)[C@H]2N.Cl [Compound 211-P1-A] | 1.22 | > 5.6 | – | – | – | – | −87.44 | 9.39 | – |
| C[C@H]1CCC[C@@]2(C1)[C@@H]1CC[C@@H](C1)[C@@H]2N.Cl [Compound 214-P2-A] | 24 | > 32 | – | – | – | – | −24.69 | −7.57 | – |
| Cl.N[C@@H]1[C@@H]2CC[C@@H](C2)[C@]12CC=CCC2 (racemic) [Compound 213] | 0.02 | > 1.8 | – | – | – | – | −86.49 | ~175 | – |
| C[C@@H]1CC[C@@]2(C1)[C@@H]1CC[C@@H](C1)[C@@H]2N.Cl [Compound 211-P2-B] | > 32 | > 32 | – | – | – | – | −10.93 | 4.75 | – |
| C[C@@]1(Cc2ccccc2)[C@H]2CC[C@H](C2)[C@H]1N.Cl (racemic) [Compound 207] | > 32 | > 32 | – | – | – | – | −25.6 | 5.9 | – |
| C[C@]1(c2ccccc2)[C@H]2CC[C@H](C2)[C@H]1N (racemic) [Compound 218, rac-(1R,2R,3R,4S)-3-methyl-3-phenylbicyclo[2.2.1]heptan-2-amine] | – | – | 13.5 | > 16 | −54.7 | −15.4 | – | – | – |
| Cl.N[C@@H]1[C@@H]2CC[C@@H](C2)C12CCC2 (racemic) [Compound 208, rac-spiro[bicyclo[2.2.1]heptane-3,1′-cyclobutan]-2-endo-amine hydrochloride] | 0.13 | > 5.6 | – | – | – | – | −65.35 | ~125 | – |
| CCC1(CC)[C@H]2CC[C@H](C2)[C@H]1N [Compound 204-P1] | 0.03 | 3.32 | – | – | – | – | −118.54 | 197.55 | – |
| CC1(CC2CC2)C2CCC(C2)C1N.Cl (racemic) [Compound 243-A, rac-3-(cyclopropylmethyl)-3-methylbicyclo[2.2.1]heptan-2-amine hydrochloride] | – | – | > 16 | > 16 | – | – | – | – | Emax (MUC1-fs; hydrochloride): −40.4; WT EMax (MUC1-wt; hydrochloride): 3.2 |
| C[C@H]1CCC[C@]2(C1)[C@H]1CC[C@H](C1)[C@H]2N.Cl [Compound 214-P1-B] | 12.1 | > 32 | – | – | – | – | −58.73 | −12.08 | – |
| CCC1(CC)[C@H]2CC[C@H](C2)[C@]1(N)c1cccs1.Cl [Compound 247, (1R,2R,4S)-3,3-diethyl-2-(thiophen-2-yl)bicyclo[2.2.1]heptan-2-amine hydrochloride] | – | – | > 16 | > 16 | −45.8 | 5.7 | – | – | – |
| C[C@H]1CC[C@@]2(C1)[C@H]1CC[C@H](C1)[C@H]2N.Cl [Compound 210-P1-A] | 26.9 | > 32 | – | – | – | – | −33.62 | 0.73 | – |
| Cl.NC1(c2ccccc2)C2CCC(C2)C12CCCC2 (racemic) [Compound 250, rac-3-phenylspiro[bicyclo[2.2.1]heptane-2,1′-cyclopentan]-3-amine hydrochloride] | – | – | 7.83 | > 16 | −86.3 | 8.2 | – | – | – |
